Like-named read-outs stand apart in the source and are kept apart here.
Legend:
VCaP cells = experiment: Cellular growth inhibition assay for VCaP cells, CellTiter-Glo; type: cell-based, human; conditions: VCaP cells, 72 hours, CellTiter-Glo, read-out: GI50
Protocol: VCaP cells were purchased from American Type Cell Culture (ATCC Cat #CRL2876) and then seeded on poly-D-lysine coated, black clear-bottom 384-well plates at 5000/well in 25 μL Dulbecco's Modified Eagle Medium (DMEM) supplemented with 10% w/w Fetal bovine serum (FBS) and 1% w/w Pen-Strep. Pen-Strep is a commercially available mixture of penicillin G and streptomycin, which is used in mammalian cell culture media to prevent bacterial contamination. Dulbecco's Modified Eagle Medium (DMEM) supplemented with 10% w/w fetal bovine serum (FBS) and 1% w/w Pen-Strep is herein referred to as Treatment Medium. Following seeding of cells in the plates, the plates were spun at 300×g for 30 seconds, then equilibrated to room temperature for 30 minutes, and then deposited in a humidified tissue culture incubator maintained at 37° C. with 5% CO2.
(§1) At 24 hours after seeding of the cells, dilutions of test compound were prepared in DMSO and dissolved in Treatment Medium, to achieve a final DMSO concentration of 0.5% w/w, thereby providing the Test Compound Solution. A 25 μL aliquot of the Test Compound Solution was added to cells in the well plates. An equal volume of a solution containing DMSO and Treatment Medium was used as a negative control. Following treatment of cells with Test Compound Solution or said equal volume of a solution containing DMSO and Treatment Medium, the plates were spun at 300×g for 30 seconds, and then left in an incubator for 72 hours.
(§2) At the end of the treatment duration, cell viability was quantified with CellTiter-Glo 2.0 reagent (Promega Cat #G9243). For this purpose, plates were equilibrated to room temperature for 30 minutes, and then 25 μL of CellTiter-Glo 2.0 reagent was added to cells in the plate wells. Plates were then agitated on a shaker for two minutes at 500 rpm and subsequently incubated at room temperature for 10 minutes. Following incubation, the plates were spun at 3000×g for 30 seconds, then sealed with an optical adhesive cover, and luminescence readings were measured with an EnVision Plate Reader.
(§3) Data was normalized using zero luminescence for baseline. A four-parameter non-linear regression curve fit was applied to dose-response data in GraphPad Prism data analysis software to determine the half-maximal growth inhibitory concentration (GI50) for each test compound.

[1] = tested on: T-Rex 293 cell line SC3 cells having increased expression of androgen receptor protein; experiment: Cellular growth inhibition, T-Rex 293 SC3 cells with increased androgen receptor expression (doxycycline), CellTiter-Glo; type: cell-based; conditions: T-Rex 293 SC3 cells with increased androgen receptor expression (exposed to 10 ng/mL doxycycline), 72 hours, CellTiter-Glo; read-out: GI50
Protocol: (§4) The following types of cells were prepared for this experiment: (i) a T-Rex 293 cell line having increased expression of androgen receptor protein due to exposure to doxycycline and (ii) a T-Rex 293 cell line lacking increased expression of androgen receptor protein. Ability of the test compounds to inhibit proliferation of the foregoing cell types was evaluated according to the procedures set forth below.
(§5) The doxycycline-inducible androgen receptor protein expressing cell line was established using the following protocol: T-Rex 293 cells were purchased from Invitrogen (Cat #R71007) and transfected using Lipofectamine 2000 with the wild-type androgen receptor protein sequence cloned into the pcDNA4/TO vector. Transfected cells were selected using 400 μg/mL Zeocin (Invitrogen Cat #R25001). Following selection, single clones were raised and maintained in Dulbecco's Modified Eagle Medium (DMEM) supplemented with 10% w/w Tetracycline-free fetal bovine serum (FBS) and 250 μg/mL Zeocin. Clones were analyzed for expression of androgen receptor protein in the presence and absence of 10 ng/ml doxycycline (Sigma Cat #D9891), and a single doxycycline-inducible clone (hereinafter “SC3”) was selected for use in downstream assays.
(§6) The SC3 cells were seeded on poly-D-lysine coated, black clear-bottom 384-well plates at 2500/well, in 25 μL Phenol Red Free Dulbecco's Modified Eagle Medium (DMEM) supplemented with 10% w/w charcoal-dextran treated fetal bovine serum (FBS) and 1% w/w pen-strep, with or without 10 ng/mL doxycycline. Pen-Strep is a commercially available mixture of penicillin G and streptomycin, which is used in mammalian cell culture media to prevent bacterial contamination. Phenol Red Free Dulbecco's Modified Eagle Medium (DMEM) supplemented with 10% w/w charcoal-dextran treated fetal bovine serum (FBS) and 1% w/w pen-strep, with or without 10 ng/mL doxycycline is herein referred to as Treatment Medium. Following seeding of cells in the plates, the plates were spun at 300×g for 30 seconds, then equilibrated to room temperature for 30 minutes, and then deposited in a humidified tissue culture incubator maintained at 37° C. with 5% CO2.
as §1, §2, §3

[2] = tested on: T-Rex 293 cell line SC3 cells lacking increased expression of androgen receptor protein; experiment: Cellular growth inhibition, T-Rex 293 SC3 cells lacking increased androgen receptor expression (no doxycycline), CellTiter-Glo; type: cell-based; conditions: T-Rex 293 SC3 cells lacking increased androgen receptor expression (not exposed to doxycycline), 72 hours, CellTiter-Glo; read-out: GI50
Protocol: as §4, §5, §6, §1, §2, §3

Structure (SMILES)	GI50 (VCaP cells) [nM]	GI50 (VCaP cells; Homo sapiens) [nM]	GI50 [1] [nM]	GI50 [2] [nM]
CCS(=O)(=O)c1ccc(Oc2ccc(CCCCC3CCN(c4ccc(C(=O)N[C@H]5CC[C@H](Oc6ccc(C#N)c(Cl)c6)CC5)nn4)CC3)cc2)c(-c2cn(C)c(=O)c3[nH]ccc23)c1 [I-64]	< 500		< 500	500 to 1500
CCS(=O)(=O)c1ccc(Oc2cccc(CCCC3CCN(c4ncc(C(=O)N[C@H]5CC[C@H](Oc6ccc(C#N)c(Cl)c6)CC5)cn4)CC3)c2F)c(-c2cn(C)c(=O)c3[nH]ccc23)c1 [I-65]	< 500		< 500	> 3000
CCS(=O)(=O)c1ccc(Oc2ccc(CCCC3CCN(c4ccc(C(=O)N[C@H]5CC[C@H](Oc6ccc(C#N)c(Cl)c6)CC5)nn4)CC3)c(F)c2)c(-c2cn(C)c(=O)c3[nH]ccc23)c1 [I-83]		< 500	< 500	< 500
Cn1cc(-c2cc(S(=O)(=O)CCCN3CCN(c4ccc(C(=O)N[C@H]5CC[C@H](Oc6ccc(C#N)c(Cl)c6)CC5)nn4)CC3)ccc2Oc2ccc(F)cc2F)c2cc[nH]c2c1=O [I-93]	< 500		< 500	> 3000
Cn1cc(-c2cc(C(C)(C)O)ccc2Oc2ccc(C3CC4(CCN(c5ccc(C(=O)N[C@H]6CC[C@H](Oc7ccc(C#N)c(Cl)c7)CC6)nn5)CC4)C3)cc2)c2cc[nH]c2c1=O [I-117]	< 500		< 500	< 500
Cn1cc(-c2cc(C(C)(C)O)ccc2Oc2ccc(CC3CC4(C3)CN(c3ccc(C(=O)N[C@H]5CC[C@H](Oc6ccc(C#N)c(Cl)c6)CC5)nn3)C4)cc2)c2cc[nH]c2c1=O [I-118]		< 500	< 500	< 500
Cn1cc(-c2cc(C(C)(C)O)ccc2Oc2ccc(CN3CC4(CCN(c5ccc(C(=O)N[C@H]6CC[C@H](Oc7ccc(C#N)c(Cl)c7)CC6)nn5)CC4)C3)cc2)c2cc[nH]c2c1=O [I-120]		< 500	< 500	< 500
Cn1cc(-c2cc(C(C)(C)O)ccc2Oc2ccc(CCN3CC4(C3)CN(c3ccc(C(=O)N[C@H]5CC[C@H](Oc6ccc(C#N)c(Cl)c6)CC5)nn3)C4)cc2)c2cc[nH]c2c1=O [I-121]	< 500		< 500	500 to 1500
Cn1cc(-c2cc(C(C)(C)O)ccc2Oc2cccc(N3CC(N(C4CC4)C4CCN(c5ccc(C(=O)N[C@H]6CC[C@H](Oc7ccc(C#N)c(Cl)c7)CC6)nn5)CC4)C3)c2F)c2cc[nH]c2c1=O [I-145]	< 500		< 500	> 3000

More lines, main results first:

GI50 (VCaP cells) [nM]	GI50 (VCaP cells; Homo sapiens) [nM]	Structure (SMILES)	GI50 [1] [nM]	GI50 [2] [nM]
	500 to 1500	Cn1cc(-c2cc(C(C)(C)O)ccc2Cc2ccc(CCC3CCN(c4ccc(C(=O)NC5CCC(Oc6ccc(C#N)c(Cl)c6)CC5)nn4)CC3)cc2)c2cc[nH]c2c1=O (stereo not drawn) [I-205, N-[4-(3-chloro-4-cyano-phenoxy)cyclohexyl]-6-[4-[2-[4-[[4-(1-hydroxy-1-methyl-ethyl)-2-(6-methyl-7-oxo-1H-pyrrolo[2,3-c]pyridin-4-yl)phenyl]methyl]phenyl]ethyl]-1-piperidyl]pyridazine-3-carboxamide]	< 500	> 3000
	> 3000	Cn1cc(-c2cc(NC(=O)CCC3CCN(c4ccc(C(=O)NC5CCC(Oc6ccc(C#N)c(Cl)c6)CC5)nn4)CC3)ccc2Oc2ccc(F)cc2F)c2cc[nH]c2c1=O (stereo not drawn) [I-212, N-[4-(3-chloro-4-cyano-phenoxy)cyclohexyl]-6-[4-[3-[4-(2,4-difluorophenoxy)-3-(6-methyl-7-oxo-1H-pyrrolo[2,3-c]pyridin-4-yl)anilino]-3-oxo-propyl]-1-piperidyl]pyridazine-3-carboxamide]	< 500	> 3000
> 3000		Cn1cc(-c2cc(NC(=O)CCCCCOC3CCN(c4ccc(C(=O)N[C@H]5CC[C@H](Oc6ccc(C#N)c(Cl)c6)CC5)nn4)CC3)ccc2Oc2ccc(F)cc2F)c2cc[nH]c2c1=O [I-215]	< 500	500 to 1500
> 3000		CCS(=O)(=O)c1ccc(Oc2ccc(CCC3CCN(c4ccc(C(=O)N[C@H]5CC[C@H](Oc6ccc(C#N)c(Cl)c6)CC5)nn4)CC3)cn2)c(-c2cn(C)c(=O)c3[nH]ccc23)c1 [I-220]	< 500	> 3000
< 500		Cn1cc(-c2cc(C3(O)COC3)ccc2Oc2ccc(OCC3CCN(c4ccc(C(=O)NC5CCC(Oc6ccc(C#N)c(Cl)c6)CC5)nn4)CC3)cc2)c2cc[nH]c2c1=O (stereo not drawn) [I-236, N-[4-(3-chloro-4-cyano-phenoxy)cyclohexyl]-6-[4-[[4-[4-(3-hydroxyoxetan-3-yl)-2-(6-methyl-7-oxo-1H-pyrrolo[2,3-c]pyridin-4-yl)phenoxy]phenoxy]methyl]-1-piperidyl]pyridazine-3-carboxamide]	< 500	> 3000
	< 500	Cn1cc(-c2cc(CS(C)(=O)=O)ccc2Oc2ccc(CCC3CCN(c4ccc(C(=O)NC5CCC(Oc6ccc(C#N)c(Cl)c6)CC5)nn4)CC3)cc2)c2cc[nH]c2c1=O (stereo not drawn) [I-237, N-[4-(3-chloro-4-cyano-phenoxy)cyclohexyl]-6-[4-[2-[4-[2-(6-methyl-7-oxo-1H-pyrrolo[2,3-c]pyridin-4-yl)-4-(methylsulfonylmethyl)phenoxy]phenyl]ethyl]-1-piperidyl]pyridazine-3-carboxamide]	< 500	< 500
	< 500	CCS(=O)(=O)c1ccc(-c2cn(C)c(=O)c3[nH]ccc23)c(-n2cc(CCC3CCN(c4ccc(C(=O)NC5CCC(Oc6ccc(C#N)c(Cl)c6)CC5)nn4)CC3)ncc2=O)c1 (stereo not drawn) [I-238, N-[4-(3-chloro-4-cyano-phenoxy)cyclohexyl]-6-[4-[2-[4-[5-ethylsulfonyl-2-(6-methyl-7-oxo-1H-pyrrolo[2,3-c]pyridin-4-yl)phenyl]-5-oxo-pyrazin-2-yl]ethyl]-1-piperidyl]pyridazine-3-carboxamide]	> 3000	> 3000
	< 500	Cn1cc(-c2cc(Br)ccc2Oc2ccc(CCC3CCN(c4ccc(C(=O)NC5CCC(Oc6ccc(C#N)c(Cl)c6)CC5)nn4)CC3)cc2)c2cc[nH]c2c1=O (stereo not drawn) [I-241, 6-[4-[2-[4-[4-bromo-2-(6-methyl-7-oxo-1H-pyrrolo[2,3-c]pyridin-4-yl)phenoxy]phenyl]ethyl]-1-piperidyl]-N-[4-(3-chloro-4-cyano-phenoxy)cyclohexyl]pyridazine-3-carboxamide]	< 500	> 3000
	< 500	CCS(=O)(=O)Nc1ccc(Oc2ccc(CCC3CCN(c4ccc(C(=O)NC5CCC(Oc6ccc(C#N)c(Cl)c6)CC5)nn4)CC3)c(F)c2)c(-c2cn(C)c(=O)c3ccccc23)c1 (stereo not drawn) [I-242, N-[4-(3-chloro-4-cyano-phenoxy)cyclohexyl]-6-[4-[2-[4-[4-(ethylsulfonylamino)-2-(2-methyl-1-oxo-4-isoquinolyl)phenoxy]-2-fluoro-phenyl]ethyl]-1-piperidyl]pyridazine-3-carboxamide]	< 500	> 3000

Reference: patent US20250388575A1, “HETEROBIFUNCTIONAL COMPOUNDS AND METHODS OF TREATING DISEASE” (Halda Therapeutics OpCo, Inc., priority 2022, published 2025)
